Activity calls are given as the source filed them. How the calls were made is not given here.
Test system: HeLa cell cycle, increased S-phase population
Test: HeLa S-phase population increase, dose response, cell-based, IC50 (AID 1117348)

SMILES | IC50
CCCCCCCCCCCC(=O)[O][Sn]([CH2]CCC)([CH2]CCC)[O]C(=O)CCCCCCCCCCC | > 10 µM (inactive)
Cc1nc(N)nc(N)c1-c1ccc(Cl)c(Cl)c1 | > 10 µM (inactive)
CCCSc1ccc2nc(NC(=O)OC)[nH]c2c1 | > 10 µM (inactive)
Nc1nc(F)nc2c1ncn2[C@@H]1O[C@H](CO)[C@@H](O)[C@@H]1O | > 10 µM (inactive)
O=Cc1ccc(O)c(O)c1O | > 10 µM (inactive)
Cc1cc(O)c2ccccc2c1O | > 10 µM (inactive)
O=C(CCl)c1ccc(Cl)cc1Cl | > 10 µM (inactive)
Cc1ccc2nc(N)[nH]c(=O)c2c1Sc1ccncc1 | > 10 µM (inactive)
NCCCC[C@H](N[C@@H](CCc1ccccc1)C(=O)O)C(=O)N1CCC[C@H]1C(=O)O | > 10 µM (inactive)
COc1cc(-c2ccc(=O)[nH]n2)ccc1OC(F)F | > 10 µM (inactive)
C[C@]12CC[C@@H]3c4ccc(O)cc4CC[C@H]3[C@@H]1CC[C@@H]2OC(=O)CCC1CCCC1 | > 10 µM (inactive)
CCN(CC)CCNC(=O)c1c(C)[nH]c(/C=C2\C(=O)Nc3ccc(F)cc32)c1C | > 10 µM (inactive)
CCCCCCCCCCCCCCCC[n+]1ccccc1 | > 10 µM (inactive)
COc1cccc2c1C(=O)c1c(O)c3c(c(O)c1C2=O)C[C@@](O)(C(C)=O)C[C@@H]3O[C@H]1C[C@H](N)[C@H](O)[C@H](C)O1 | 9.6 µM (inactive)
COCc1c(C(C)C)nc(C(C)C)c(/C=C/[C@@H](O)C[C@@H](O)CC(=O)O)c1-c1ccc(F)cc1 | > 10 µM (inactive)
C=C(C)[C@H]1Cc2c(ccc3c2O[C@@H]2COc4cc(OC)c(OC)cc4[C@@H]2C3=O)O1 | > 10 µM (inactive)
CCC(C)(C)C(=O)O[C@H]1C[C@@H](C)C=C2C=C[C@H](C)[C@H](CC[C@@H]3C[C@@H](O)CC(=O)O3)[C@H]21 | > 10 µM (inactive)
CCCNCC(O)COc1ccccc1C(=O)CCc1ccccc1 (stereo not drawn) | > 10 µM (inactive)
CN(Cc1cnc2nc(N)nc(N)c2n1)c1ccc(C(=O)N[C@@H](CCC(=O)O)C(=O)O)cc1 | > 10 µM (inactive)
CC(C)=CCC/C(C)=C/CC/C(C)=C/C(=O)OCC(=O)[C@@]1(O)CC[C@H]2[C@@H]3CCC4=CC(=O)C=C[C@]4(C)[C@H]3[C@@H](O)C[C@@]21C | > 10 µM (inactive)
CCc1oc2ccccc2c1C(=O)c1cc(Br)c(O)c(Br)c1 | > 10 µM (inactive)
O=[N+]([O-])c1ccc(O)c2ncccc12 | > 10 µM (inactive)
CC(=O)Oc1ccccc1C(=O)Nc1ncc([N+](=O)[O-])s1 | > 10 µM (inactive)
Cc1ccccc1C(OCCN(C)C)c1ccccc1 (stereo not drawn) | > 10 µM (inactive)

SMILES | IC50
Cc1ccc(Nc2nccc(N(C)c3ccc4c(C)n(C)nc4c3)n2)cc1S(N)(=O)=O | > 10 µM (inactive)
CC(=O)Nc1ccn(C2COC(COC(=O)c3ccccc3)O2)c(=O)n1 (stereo not drawn) | 0.312 µM
CCc1nc(N)nc(N)c1-c1ccc(Cl)cc1 | > 10 µM (inactive)
O[C@@H](CNC[C@H](O)[C@H]1CCc2cc(F)ccc2O1)[C@@H]1CCc2cc(F)ccc2O1 | > 10 µM (inactive)
CCCCCCCCCCCCCC[N+](C)(C)C | > 10 µM (inactive)
NC(N)=NN=C(/C=C/c1ccc([N+](=O)[O-])o1)/C=C/c1ccc([N+](=O)[O-])o1 | > 10 µM (inactive)
Nc1ccc2cc3ccc(N)cc3nc2c1 | 3.44 µM
CCCCCCCCCCCC[N+](C)(C)Cc1ccccc1 | > 10 µM (inactive)
CCCCc1ccc2nc(NC(=O)OC)[nH]c2c1 | > 10 µM (inactive)
CC(=O)Oc1ccc(C2(c3ccc(OC(C)=O)cc3)Oc3ccccc3NC2=O)cc1 | > 10 µM (inactive)
O=C(Nc1ccc([N+](=O)[O-])cc1Cl)c1cc(Cl)ccc1O | > 10 µM (inactive)
CC(C)=CCOc1ccc(/C=C/C(=O)c2ccc(OCC=C(C)C)cc2OCC(=O)O)cc1 | > 10 µM (inactive)
O=c1[nH]c(=O)n([C@H]2C[C@H](O)[C@@H](CO)O2)cc1I | > 10 µM (inactive)
O=C(Nc1ccc(Br)cc1)c1cc(Br)cc(Br)c1O | > 10 µM (inactive)
CC(C)(C)C(=O)OCOP(=O)(COCCn1cnc2c(N)ncnc21)OCOC(=O)C(C)(C)C | 0.0608 µM
COC(=O)Nc1nc2ccc(C(=O)c3cccs3)cc2[nH]1 | > 10 µM (inactive)
COc1c(C)c2c(c(O)c1C/C=C(\C)CCC(=O)OCCN1CCOCC1)C(=O)OC2 | 0.0147 µM
O=c1[nH]c(=O)n([C@H]2C[C@H](O)[C@@H](CO)O2)cc1Br | > 10 µM (inactive)
O=C1C(I)=CC(=C(c2cc(I)c(O)c(I)c2)c2ccccc2C(=O)O)C=C1I | > 10 µM (inactive)
Nc1nc(=O)n([C@@H]2O[C@H](CO)[C@@H](O)[C@@H]2F)cc1I | > 10 µM (inactive)
CC(C)c1c(C(=O)Nc2ccccc2)c(-c2ccccc2)c(-c2ccc(F)cc2)n1CC[C@@H](O)C[C@@H](O)CC(=O)O | > 10 µM (inactive)
C[n+]1c2cc(N)ccc2cc2ccc(N)cc21 (tested in a mixture with another compound) | 1.96 µM
COc1ccc2cc1Oc1ccc(cc1)C[C@H]1c3c(cc4c(c3Oc3cc5c(cc3OC)CCN(C)[C@@H]5C2)OCO4)CCN1C | > 10 µM (inactive)
CC(CC1c2ccccc2CCc2ccccc21)CN(C)C (stereo not drawn) | > 10 µM (inactive)

SMILES | IC50
CCCCC(CC)CN=C(N)NC(N)=NCCCCCCN=C(N)NC(N)=NCC(CC)CCCC (stereo not drawn) | > 10 µM (inactive)
CCN(CC)CCOc1ccccc1C(=O)CCc1ccccc1 | > 10 µM (inactive)
CC(=O)[C@]1(O)Cc2c(O)c3c(c(O)c2[C@@H](O[C@H]2C[C@H](N)[C@H](O)[C@H](C)O2)C1)C(=O)c1ccccc1C3=O | > 10 µM (inactive)
O=C1[C@H]2CCCC[C@H]2C(=O)N1CCCCN1CCN(c2nsc3ccccc23)CC1 | > 10 µM (inactive)
CCCCCCCCCCCCNCCNCCNCC(=O)O | > 10 µM (inactive)
O=C(c1cc(O)c(O)c(O)c1)c1ccc(O)c(O)c1O | > 10 µM (inactive)
O=c1[nH]c(=O)n([C@H]2C[C@H](O)[C@@H](CO)O2)cc1F | 0.169 µM
O=C1c2c(O)cccc2Cc2cccc(O)c21 | > 10 µM (inactive)
O=C(NOCC1CC1)c1ccc(F)c(F)c1Nc1ccc(I)cc1Cl | > 10 µM (inactive)
CN(C)/N=N/c1nc[nH]c1C(N)=O | > 10 µM (inactive)
Cc1ccc(CCn2c3c(c4cc(Cl)ccc42)CN(C)CC3)cn1 | > 10 µM (inactive)
Cc1cc(CC(C)CC(C)(C)C)n(O)c(=O)c1 (stereo not drawn) | > 10 µM (inactive)
CN(C)c1ccc2nc3ccc(=[N+](C)C)cc-3sc2c1 | > 10 µM (inactive)
CC[C@H](C)C(=O)O[C@H]1C[C@@H](C)C=C2C=C[C@H](C)[C@H](CC[C@@H]3C[C@@H](O)CC(=O)O3)[C@H]21 | > 10 µM (inactive)
O=C(CCBr)N1CCN(C(=O)CCBr)CC1 | > 10 µM (inactive)
Cc1cc(=O)c2c(O)c3c(O)cc(=O)c4c3c3c(cc(O)c1c23)C(C)(C)C=4O | > 10 µM (inactive)
Cn1cnc([N+](=O)[O-])c1Sc1ncnc2nc[nH]c12 | > 10 µM (inactive)
CC(=O)N(O)CCCCCNC(=O)CCC(=O)N(O)CCCCCNC(=O)CCC(=O)N(O)CCCCCN | > 10 µM (inactive)
CCC(COC(=O)c1cc(OC)c(OC)c(OC)c1)(c1ccccc1)N(C)C (stereo not drawn) | > 10 µM (inactive)
COC(=O)c1nc(Cl)c(Cl)nc1N | > 10 µM (inactive)
O=C(O)CN(CCN(CC(=O)O)CC(=O)O)CCN(CC(=O)O)CC(=O)O | > 10 µM (inactive)
CCc1oc2ccccc2c1C(=O)c1cc(I)c(O)c(I)c1 | > 10 µM (inactive)
CCC(=O)c1ccc(O)cc1 | > 10 µM (inactive)
COc1cc([C@@H]2c3cc4c(cc3[C@H](O)[C@H]3COC(=O)[C@H]23)OCO4)cc(OC)c1OC | > 10 µM (inactive)

SMILES | IC50
C[C@@H](O[C@H]1OCCN(Cc2n[nH]c(=O)[nH]2)[C@H]1c1ccc(F)cc1)c1cc(C(F)(F)F)cc(C(F)(F)F)c1 | > 10 µM (inactive)
COC(=O)[C@H]1[C@H]2C[C@@H]3c4[nH]c5cc(OC)ccc5c4CCN3C[C@H]2C[C@@H](OC(=O)/C=C/c2ccc(O)c(OC)c2)[C@@H]1OC | > 10 µM (inactive)
COc1ccc(-c2ccc3cc(C(=O)O)ccc3c2)cc1C12CC3CC(CC(C3)C1)C2 | > 10 µM (inactive)
COc1cc(NC(C)CCCN)c2ncccc2c1 (stereo not drawn) | > 10 µM (inactive)
COCCOC(=O)C1=C(C)NC(C)=C(C(=O)OC/C=C/c2ccccc2)C1c1cccc([N+](=O)[O-])c1 (stereo not drawn) | > 10 µM (inactive)
CCCCC1C(=O)N(c2ccccc2)N(c2ccc(O)cc2)C1=O (stereo not drawn) | > 10 µM (inactive)
O=C1C2CC=CCC2C(=O)N1SC(Cl)(Cl)Cl (stereo not drawn) | > 10 µM (inactive)
C[C@@]12C(=O)OC(=O)[C@]1(C)C1CCC2O1 | > 10 µM (inactive)
Clc1ccc(Nc2nnc(Cc3ccncc3)c3ccccc23)cc1 | > 10 µM (inactive)
CN(C)CCC=C1c2ccccc2CCc2ccccc21 | > 10 µM (inactive)
C=CC(=O)Nc1cc2c(Nc3ccc(F)c(Cl)c3)ncnc2cc1OCCCN1CCOCC1 | > 10 µM (inactive)
Cc1ccc(S(=O)(=O)NC(=O)NN2CC3CCCC3C2)cc1 (stereo not drawn) | > 10 µM (inactive)
COc1cc(NCc2ccc3nc(N)nc(N)c3c2C)cc(OC)c1OC | > 10 µM (inactive)
Cc1ccc2c(c1)c1c3n2CCNC3CCC1 (stereo not drawn) | > 10 µM (inactive)
CCCCOC(=O)c1ccc(N)cc1 | > 10 µM (inactive)
Clc1ccccc1C(c1ccccc1)(c1ccccc1)n1ccnc1 | > 10 µM (inactive)
CCN(CC)CCNc1ccc(CO)c2sc3ccccc3c(=O)c12 | > 10 µM (inactive)
CC(=O)O[C@@]12CO[C@@H]1C[C@H](O)[C@@]1(C)C(=O)[C@H](O)C3=C(C)[C@@H](OC(=O)[C@H](O)[C@@H](NC(=O)OC(C)(C)C)c4ccccc4)C[C@@](O)([C@@H](OC(=O)c4ccccc4)[C@H]21)C3(C)C | > 10 µM (inactive)
[O-][n+]1ccccc1SSc1cccc[n+]1[O-] | > 10 µM (inactive)
COC(=O)Nc1nc2ccc(Sc3ccccc3)cc2[nH]1 | > 10 µM (inactive)
Oc1c(Cl)cc(Cl)cc1Sc1cc(Cl)cc(Cl)c1O | > 10 µM (inactive)

Source: PubChem BioAssay AID1117348 (Cheminformatics & Chemogenomics Research Group (CCRG), …, 2015)
